According to ChEMBL document CHEMBL1131386, “Synthesis and evaluation of 11beta-substituted 21-chloro/iodo-(17alpha,20E/Z)-19-norpregna-1,3,5(10),20-te traene-3, 17beta-diols: high-affinity ligands for the estrogen receptor” (J Med Chem, 1998):

What was measured:
[1] = molecular target: T1, Estrogen receptor (Ovis aries) (UniProt P49885+Q9TU15); assay: Relative binding affinity for lamb uterine estrogen receptor at 4C; type: protein assay
[2] = molecular target: T1, Estrogen receptor (Ovis aries); assay: Relative binding affinity for lamb uterine estrogen receptor at 25 degree C; type: protein assay

SMILES: CO[C@H]1C[C@@]2(C)[C@@H](CC[C@@]2(O)/C=C/I)[C@@H]2CCc3cc(O)ccc3[C@H]21
- RBA [1]: 34
- RBA [2]: 65

SMILES: C=C[C@H]1C[C@@]2(C)[C@@H](CC[C@@]2(O)/C=C\Cl)[C@@H]2CCc3cc(O)ccc3[C@H]21
- RBA [1]: 101
- RBA [2]: 704

SMILES: CO[C@H]1C[C@@]2(C)[C@@H](CC[C@@]2(O)/C=C\I)[C@@H]2CCc3cc(O)ccc3[C@H]21
- RBA [1]: 48
- RBA [2]: 513

SMILES: C[C@]12CC[C@@H]3c4ccc(O)cc4CC[C@H]3[C@@H]1CC[C@@]2(O)/C=C/Cl
- RBA [1]: 102
- RBA [2]: 89

SMILES: CO[C@H]1C[C@@]2(C)[C@@H](CC[C@@]2(O)/C=C\Cl)[C@@H]2CCc3cc(O)ccc3[C@H]21
- RBA [1]: 22
- RBA [2]: 195

SMILES: C=C[C@H]1C[C@@]2(C)[C@@H](CC[C@@]2(O)/C=C\I)[C@@H]2CCc3cc(O)ccc3[C@H]21
- RBA [1]: 98
- RBA [2]: 1200

SMILES: C[C@]12CC[C@@H]3c4ccc(O)cc4CC[C@H]3[C@@H]1CC[C@@]2(O)/C=C\I
- RBA [1]: 202
- RBA [2]: 776

SMILES: CO[C@H]1C[C@@]2(C)[C@@H](CC[C@@]2(O)/C=C/Cl)[C@@H]2CCc3cc(O)ccc3[C@H]21
- RBA [1]: 29
- RBA [2]: 65

SMILES: C[C@]12CC[C@@H]3c4ccc(O)cc4CC[C@H]3[C@@H]1CC[C@@]2(O)/C=C/I
- RBA [1]: 77
- RBA [2]: 62

SMILES: C=C[C@H]1C[C@@]2(C)[C@@H](CC[C@@]2(O)/C=C/I)[C@@H]2CCc3cc(O)ccc3[C@H]21
- RBA [1]: 78
- RBA [2]: 447

SMILES: C=C[C@H]1C[C@@]2(C)[C@@H](CC[C@@]2(O)/C=C/Cl)[C@@H]2CCc3cc(O)ccc3[C@H]21
- RBA [1]: 107
- RBA [2]: 724

SMILES: C[C@]12CC[C@@H]3c4ccc(O)cc4CC[C@H]3[C@@H]1CC[C@@]2(O)/C=C\Cl
- RBA [1]: 126
- RBA [2]: 199
